For 13 molecules, Ki and EC50 results are on record in patent publication US9776990B2, “Isoindolone derivatives” (AbbVie Inc., priority 2012, dated 2017).

In one assay the target is BRD4 (BDII_E352-M457) (Homo sapiens (Human), UniProt O60885). Description: TR-FRET bromodomain binding assay, BRD4 second bromodomain. The note with it: His-tagged BD2, 30 nM Alexa647 probe. How it is done: (§1) A time-resolved fluorescence resonance energy transfer (TR-FRET) assay was used to determine the affinities of compounds of the Examples listed in Table 1 for each bromodomain of BRD4. His-tagged first (BD1: amino acids K57-E168) and second (BD2: amino acids E352-E168) bromodomains of BRD4 were expressed and purified. An Alexa647-labeled BET-inhibitor was used as the fluorescent probe in the assay.
(§2) Compound dilution series were prepared in DMSO via a 3-fold serial dilution from 2.5 mM to 42 nM. Compounds were then diluted 6:100 in assay buffer (20 mM Sodium Phosphate, pH 6.0, 50 mM NaCl, 1 mM EDTA, 0.01% Triton X-100, 1 mM DTT) to yield 3× working solutions. Six microliters (μL) of the working solution was then transferred to white, low-volume assay plates (Costar #3673). A 1.5× assay mixture containing His-tagged bromodomain, Europium-conjugated anti-His antibody (Invitrogen PV5596) and the Alexa-647-conjugated probe molecule was also prepared. Twelve μL of this solution were added to the assay plate to reach a final volume of 18 μL. The final concentration of 1× assay buffer contains 2% DMSO, 50 μM−0.85 nM compound, 8 nM bromodomain, 1 nM antibody and 100 or 30 nM probe (for BDI or BDII, respectively). After a one-hour incubation at room temperature, TR-FRET ratios were determined using an Envision multilabel plate reader (Ex 340, Em 495/520).
(§3) TR-FRET data were normalized to the means of 24 no-compound controls (“high”) and 8 controls containing 1 μM un-labeled probe (“low”). Percent inhibition was plotted as a function of compound concentration and the data were fit with the 4 parameter logistic equation to obtain IC50s Inhibition constants (Ki) were calculated from the IC50s, probe Kd and probe concentration. Typical Z′ values were between 0.65 and 0.75. The minimum significant ratio was determined to evaluate assay reproducibility (Eastwood et al., (2006) J Biomol Screen, 11: 253-261). The MSR was determined to be 2.03 for BDI and 1.93 for BDII, and a moving MSR (last six run MSR overtime) for both BDI and BDII was typically <3.
For orientation: TR-FRET usually uses a lanthanide donor and a delayed reading to cut background.

In assay [1] the test system is breast cancer cell line MX-1. Description: MX-1 cell line proliferation assay (3-day, Cell Titer Glo). The format is cell-based, human. The note with it: Homo sapiens, MX1, MX-1 cells, 72 hours, read-out: Cellular proliferation: EC50. As for the experimental part: The impact of compounds of the Examples on cancer cell proliferation was determined using the breast cancer cell line MX-1 (ATCC) in a 3-day proliferation assay. MX-1 cells were maintained in RPMI supplemented with 10% FBS at 37 C.° and an atmosphere of 5% CO2. For compound testing, MX-1 cells were plated in 96-well black bottom plates at a density of 5000 cells/well in 90 μl of culture media and incubated at 37° overnight to allow cell adhesion and spreading. Compound dilution series were prepared in DMSO via a 3-fold serial dilution from 3 mM to 0.1 μM. The DMSO dilution series were then diluted 1:100 in phosphate buffered saline, and 10 μL of the resulted solution were added to the appropriate wells of the MX-1 cell plate. The final compound concentrations in the wells were 3, 1, 0.3, 0.1, 0.03, 0.01, 0.003, 0.001, 0.0003 and 0.0001 μM.
Luminescence readings from the Cell Titer Glo assay were normalized to the DMSO treated cells and analyzed using the GraphPad Prism software with sigmoidal curve fitting to obtain EC50s. The minimum significant ratio (MSR) was determined to evaluate assay reproducibility (Eastwood et al., (2006) J Biomol Screen, 11: 253-261).
On the technique in general: In ATP-based viability assays light output follows the ATP content of the culture.

The target of the next assay is BRD4 (BDI_K57-E168) (Homo sapiens (Human), UniProt O60885). Description: TR-FRET bromodomain binding assay, BRD4 first bromodomain. The note with it: His-tagged BD1, 100 nM Alexa647 probe. As for the experimental part:
as §1, §2, §3

The Ki is a dissociation constant, usually derived from enzyme kinetics or from competition with a known ligand. High values mean lower affinity, low ones higher affinity. With `CCS(=O)(=O)Nc1ccc(OC2CCC(F)(F)CC2)c(-c2[nH]c(C)c3c2CCCC3=O)c1` [Example 52, N-{4-[(4,4-difluorocyclohexyl)oxy]-3-(3-methyl-4-oxo-4,5,6,7-tetrahydro-2H-isoindol-1-yl)phenyl}ethanesulfonamide], the Ki at BRD4 (BDII_E352-M457) is 0.088 µM; on BRD4 (BDI_K57-E168) it was 0.009 µM. The EC50 in assay [1] is 0.184 µM.

Regarding `Cc1[nH]c(-c2cc(NS(C)(=O)=O)ccc2Oc2ccccc2)c2c1C(=O)CC(CC(C)C)C2` (centres unmarked) [Example 69, N-{3-[3-methyl-6-(2-methylpropyl)-4-oxo-4,5,6,7-tetrahydro-2H-isoindol-1-yl]-4-phenoxyphenyl}methanesulfonamide], the Ki on BRD4 (BDII_E352-M457) was 2.07 µM; on BRD4 (BDI_K57-E168), 0.151 µM. Moreover, the EC50 in assay [1] was found to be 0.6 µM.

Consider `Cc1[nH]c(-c2ccc(S(C)(=O)=O)cc2)c2c1C(=O)CCC2` [Example 8, 3-methyl-1-[4-(methylsulfonyl)phenyl]-2,5,6,7-tetrahydro-4H-isoindol-4-one], for which the inhibitory constant (Ki) on BRD4 (BDII_E352-M457) worked out at 3.82 µM; on BRD4 (BDI_K57-E168) it was 1.43 µM. In addition, the EC50 in assay [1] was 2.5 µM.

In the case of `Cc1[nH]c(-c2cccc3[nH]ccc23)c2c1C(=O)CCC2` [Example 10, 1-(1H-indol-4-yl)-3-methyl-2,5,6,7-tetrahydro-4H-isoindol-4-one], the Ki on BRD4 (BDII_E352-M457) was 4.06 µM; at BRD4 (BDI_K57-E168) it was 1.79 µM. In assay [1], the EC50 stood at 1.23 µM.

`Cc1[nH]c(-c2cccc3ccccc23)c2c1C(=O)CCC2` [Example 19, 3-methyl-1-(naphthalen-1-yl)-2,5,6,7-tetrahydro-4H-isoindol-4-one]: the EC50 in assay [1] was found to be 3.18 µM.

As to `Cc1[nH]c(-c2cc(S(C)(=O)=O)ccc2OCC2CC2)c2c1C(=O)CCC2` [Example 73, 1-[2-(cyclopropylmethoxy)-5-(methylsulfonyl)phenyl]-3-methyl-2,5,6,7-tetrahydro-4H-isoindol-4-one], the Ki on BRD4 (BDII_E352-M457) was found to be 0.461 µM; on BRD4 (BDI_K57-E168), 0.034 µM.

On to `Cc1[nH]c(-c2ccc(Cl)cc2)c2c1C(=O)CCC2` [Example 13, 1-(4-chlorophenyl)-3-methyl-2,5,6,7-tetrahydro-4H-isoindol-4-one], for which the Ki on BRD4 (BDII_E352-M457) amounted to 22.2 µM; on BRD4 (BDI_K57-E168), 7.29 µM.

Consider `Cc1[nH]c(-c2ccccc2-c2ccco2)c2c1C(=O)CCC2` [Example 27, 1-[2-(furan-2-yl)phenyl]-3-methyl-2,5,6,7-tetrahydro-4H-isoindol-4-one], for which the results for the Ki at BRD4 (BDII_E352-M457) and at BRD4 (BDI_K57-E168) were 6.58 µM and 2.76 µM, respectively.

With `Cc1[nH]c(-c2cc(NS(C)(=O)=O)ccc2Oc2ccc(F)cc2F)c2c1C(=O)CCC2` [Example 46, N-[4-(2,4-difluorophenoxy)-3-(3-methyl-4-oxo-4,5,6,7-tetrahydro-2H-isoindol-1-yl)phenyl]methanesulfonamide], the values for the Ki at BRD4 (BDII_E352-M457) and at BRD4 (BDI_K57-E168) were 0.052 µM and 0.014 µM, respectively.

For the molecule `Cc1[nH]c(-c2ccccc2COc2cccc(C(F)(F)F)c2)c2c1C(=O)CCC2` [Example 23, 3-methyl-1-(2-{[3-(trifluoromethyl)phenoxy]methyl}phenyl)-2,5,6,7-tetrahydro-4H-isoindol-4-one], the Ki at BRD4 (BDII_E352-M457) is 8.92 µM; on BRD4 (BDI_K57-E168) it was 9.09 µM.

Regarding `Cc1[nH]c(-c2cc(C(=O)Nc3nccs3)ccc2Oc2ccccc2)c2c1C(=O)CCC2` [Example 57, 3-(3-methyl-4-oxo-4,5,6,7-tetrahydro-2H-isoindol-1-yl)-4-phenoxy-N-(1,3-thiazol-2-yl)benzamide], the Ki at BRD4 (BDII_E352-M457) was determined as 22.2 µM; on BRD4 (BDI_K57-E168), 1.07 µM.

As to `Cc1[nH]c(-c2ccccc2OCc2ccc3[nH]ncc3c2)c2c1C(=O)CCC2` [Example 38, 1-[2-(1H-indazol-5-ylmethoxy)phenyl]-3-methyl-2,5,6,7-tetrahydro-4H-isoindol-4-one], the Ki was 4.86 µM on BRD4 (BDII_E352-M457) and 4.88 µM on BRD4 (BDI_K57-E168).

Consider `Cc1[nH]c(-c2ccccc2N)c2c1C(=O)CCC2` [Example 3, 1-(2-aminophenyl)-3-methyl-2,5,6,7-tetrahydro-4H-isoindol-4-one], for which the inhibition constant (Ki) worked out at 15 µM at BRD4 (BDII_E352-M457) and 3.73 µM at BRD4 (BDI_K57-E168).
